# Legend:
# [1] = system: A549; assay: In vitro antitumor activity against A549 human NSCLC lung carcinoma cells; assay type: functional, cell-based
# [2] = system: HT-29; assay: In vitro antitumor activity against HT-29 human colon adenocarcinoma cells; assay type: functional, cell-based
# [3] = system: L1210; assay: In vitro antitumor activity against L1210 murine lymphocytic leukemia cells; assay type: functional, cell-based; conditions: Mus musculus
# [4] = system: MCF7; assay: In vitro antitumor activity against MCF-7 human breast adenocarcinoma cells; assay type: functional, cell-based
# [5] = system: PSN1; assay: In vitro antitumor activity against PSN-1 human pancreatic carcinoma cells; assay type: functional, cell-based
# [6] = system: CCRF-CEM; assay: Cytotoxic activity against HIV infected T4 lymphocytes (CEM cell line); assay type: functional, cell-based; conditions: Homo sapiens
# [7] = system: CCRF-CEM; assay: Antitumor activity against HIV infected T4 lymphocytes (CEM cell line) at 0.4 uM concentration; assay type: functional, Homo sapiens
# [8] = system: CCRF-CEM; assay: Cytotoxic activity against HIV uninfected T4 lymphocytes (CEM cell line); assay type: functional, cell-based; conditions: Homo sapiens
IC50 [1] [µM],IC50 [2] [µM],IC50 [3] [µM],IC50 [4] [µM],IC50 [5] [µM],SMILES,IC50 [6] [µM],Protection [7] [%],IC50 [8] [µM]
> 100,> 100,> 100,> 100,> 100,C/C(=C\Cc1nc(C(N)=O)cs1)CCC(=O)O,,,
> 100,> 100,> 100,> 100,> 100,COC(=O)c1ccc(C/C=C(\C)CCC(=O)O)[nH]1,360,,
> 100,> 100,> 100,> 100,> 100,C/C(=C\Cn1cnc(C(N)=O)n1)CCC(=O)O,,,
> 100,> 100,> 100,> 100,> 100,C/C(=C\Cc1cccc(C(N)=O)n1)CCC(=O)O,,,
> 100,> 100,> 100,> 100,> 100,C/C(=C\Cc1ccc(C(N)=O)[nH]1)CCC(=O)O,730,,

# Further lines, the compound ahead of its results:
SMILES,IC50 [1] [µM],IC50 [2] [µM],IC50 [3] [µM],IC50 [4] [µM],IC50 [5] [µM],IC50 [6] [µM],Protection [7] [%],IC50 [8] [µM]
COc1c(C)c2c(c(O)c1C/C=C(\C)CCC(=O)O)C(=O)OC2 [MYCOPHENOLIC ACID],0.4,0.9,< 0.2,0.5,0.7,,20,0.9
C/C(=C\Cn1cnc(C(=O)O)n1)CCC(=O)O,> 100,> 100,> 100,> 100,> 100,,,
C/C(=C\Cn1cnc2c(Cl)ncnc21)CCC(=O)O,> 100,> 100,> 100,> 100,> 100,,,
C/C(=C\Cn1cnc2c(O)ncnc21)CCC(=O)O,> 100,> 100,> 100,> 100,> 100,,,

# Reference: ChEMBL document CHEMBL1128880, “Design and synthesis of heterocyclic analogues of mycophenolic acid as potential chemotherapeutic agents” (Bioorg Med Chem Lett, 1995)
